According to patent US12492222B2, “Lipophilic enantiomers of desacetylglucosamine muramyl dipeptide with anti-inflammatory and growth promoting activity” (Nutrivert Inc., priority 2020, dated 2025):
Peptide text beside a SMILES is read from it.

Experiments:
[1] = test system: broiler chickens; assay: Growth rate and feed conversion in broiler chickens fed supplemented feed; type: in vivo; settings: for feed conversion rate at constant body weight gain: LDPP 0.2 mg/kg feed, bacitracin 50 mg/kg feed
Experimental: The objective of this experiment was to evaluate if supplementation of feed with L-lactate-D-alanine-L-glutamine palmityl ester (LDPP) at 0.2 mg/kg feed increases the growth rate and/or improves the feed conversion in broiler chickens, i.e., if it promotes growth by making broiler chickens grow faster and/or require less feed for the same amount of gain in body weight. A secondary objective was to compare the effect of LDPP to that of bacitracin, an industry-standard growth promoting antibiotic.
Freshly hatched female Ross 708 broiler chickens were housed for as single flock for 21 days on a floor pen with used bedding. All chickens received crumbled untreated standard Aviagen 708 starter and grower feeds during this time, with 80% recommended crude protein and without anti-coccidial supplement. After 3 weeks, the chickens were grouped into 38 replicate floor pens of 25 chickens with fresh bedding. Chickens were fed for 24 days from day 21 through termination on day 44 standard crumbled finisher Aviagen 708 finisher feed with 100% protein and 0.0125% amprolium anti-coccidial inclusion. Feed and water were available ad libitum throughout the trial. Thirteen pens each were assigned to untreated controls (feed without supplement) and LDPP-treatment (0.2 mg LDPP/kg feed), and 12 pens were assigned to bacitracin treatment (50 mg bacitracin/kg feed). The experimental unit was the pen rather than individual chickens. Pen weights of chickens were determined on day 21 and 44. Finisher feed uptake was be recorded, and on day 44 residual feed was determined, and the experiment was terminated.
For constant time analyses of the complete 24-day duration of the feeding experiment, the overall (true) feed conversion for each treatment group was determined by dividing total consumed feed by total weight gains of all pens of each treatment group.
For constant body weight gain analyses, the time on feed of the bacitracin and LDPP treated groups was modeled to match the weight gain of the untreated control group. Based on the closely matching body weights and weight gains of standard female Ross 708 broilers, body weight gains per chicken on the last day 44 of the experiment were calculated as the 0.04781 fraction of pen body weight gain day 21-44/surviving chickens per pen. […] Similarly, feed consumption per chicken on day 44 was calculated as the 0.05867 fraction of pen feed uptake day 21-44/surviving chickens per pen. Mean feed uptake per treatment group was then calculated by subtracting the previously found fractional daily feed uptake from each pen.
Body weight gain and feed consumption data were analyzed by one-way ANOVA and Tukey […] connection for multiple comparisons. Group differences in feed conversion rates were evaluated from pen FCR data by non-parametric Mann Whitney U test.

[2] = test system: nursery pigs; assay: Growth rate and feed conversion in freshly weaned nursery pigs fed supplemented feed; type: in vivo; settings: 0.2 mg/kg feed
Experimental: The objective of this experiment was to evaluate if supplementation of feed with L-lactate-D-alanine-L-glutamine palmityl ester (LDPP) at 0.2 mg/kg feed increases the growth rate and/or improves the feed conversion in freshly weaned nursery pigs.
Male pigs (barrows) were used in this study. Pigs were weaned at approximately 3 weeks of age, transferred to the nursery, and randomly allotted to 24 nursery pens with 4 pigs per pen. One of 2 dietary treatments, untreated controls (feed without supplement) or LDPP-treatment (0.2 mg LDPP/kg feed), was assigned to each pen, such that 12 pens of 4 pigs were used to evaluate the effect of each diet. Premixes of the treatment compounds were added at 0.1% to mixed diets, which were then pelleted. Phase 1 diet was fed at 6 lb/pig from day 0 to approximately day 8 post-weaning. On day 8 post-weaning, pigs were switched to 12 lb/pig Phase 2 diet which expired approximately on day 18. Once the Phase 2 diet had been consumed, pigs were switched to Phase 3 diet and maintained until termination of the study on day 42. No antibiotics were added to any diet. Diets were formulated to meet or exceed all the nutrient requirements based on the 2012 NRC specifications. Pigs received diets and water ad libitum. Pigs were weighed individually on days 0 and 42 of the experiment. Feed intake per pen was monitored for the weigh period. Although individual pig weights were obtained, the pen was the experimental unit. On day 42, the study was terminated and untreated pigs were retained in the food chain while the treatment pigs were euthanized.
Pen data were converted into individual pig data by dividing by the number of pigs. For three pens in which pigs were euthanized, a time-fractional pig number was used. Body weight gain and calculated feed consumption data were analyzed by pairwise T-test. The overall (true) feed conversion for each treatment was determined by dividing total consumed feed by total weight gains of all pens of each treatment. Treatment differences in feed conversion were statistically evaluated by non-parametric Mann Whitney U test of pen feed conversion data.
For constant body weight gain analyses, the time on feed of the LDPP treated group was modeled to match the weight gain of the untreated control group. Daily body weights and weight gains were modeled by linear interpolation between weights on days 0 and 42. […] From interpolated daily body weight data, daily feed consumption was first calculated as 5% of body weight. The sum of these daily feed uptakes was then divided by the actual weighed feed uptake of each pen, and daily feed uptakes were multiplied by this fraction to arrive at the precise weighed feed uptake per pen. These calculated daily feed uptakes were used to calculate feed uptake by changed times on feed for the LDPP treatment group. Mean feed uptake of the LDPP treatment group was then calculated by subtracting for each pen the previously found day 42 and 41 and the fractional day 40 feed uptake.
Body weight gain and feed consumption data were analyzed by one-way ANOVA and Student's T-test. Differences in feed conversion rates were evaluated from pen FCR data by non-parametric Mann Whitney U test.

[3] = modeled, 1,653 g constant weight gain

SMILES: CCCCCCCCCCCCCCCCOC(=O)[C@H](CCC(N)=O)NC(=O)[C@@H](C)NC(=O)[C@H](C)O [LDPP, hexadecyl (2S)-5-amino-2-[[(2R)-2-[[(2S)-2-hydroxypropanoyl]amino]propanoyl]amino]-5-oxo-pentanoate]
- feed conversion rate at constant time ([1]; 0.2 mg/kg feed, 24 days, total consumed feed / total weight gain, untreated 1.818): 1.805
- morbidity and mortality rates between groups ([1]; 0.2 mg/kg feed, day 21-44): did not differ significantly
- body weight gain per chicken ([1]; 0.2 mg/kg feed, day 21-44 (24 days constant time)): 1,725 g
- increase of weight gain versus untreated control chickens ([1]; 0.2 mg/kg feed, day 21-44 (24 days constant time), control 1,653 g): 4.4%
- improvement of feed conversion rate at constant body weight gain versus untreated ([1]; 0.2 mg/kg feed, modeled constant weight gain): 1.7%
- time on feed required for weight gain identical to untreated controls ([1]; 0.2 mg/kg feed, modeled, 1,653 g constant weight gain, controls 24 days): 23.13 days
- feed conversion rate at constant body weight gain [1, 3]: 1.787
- improvement of feed conversion rate at constant time versus untreated ([2]; 42 days): 3.8%
- feed conversion rate at constant time ([2]; 42 days, total consumed feed / total weight gain, untreated 1.479): 1.423
- morbidity and mortality rates between groups ([2]; day 0-42): did not differ significantly
- body weight gain per pig ([2]; day 0-42 (constant time)): 23.826 kg
- increase of weight gain versus untreated nursery pigs ([2]; day 0-42 (constant time), control 22.076 kg): 7.9%
- improvement of feed conversion rate at constant body weight gain versus untreated ([2]; modeled constant weight gain): 5.5%
- more rapid growth compared to controls ([2]; modeled constant weight gain): 2.1 days
- feed conversion rate at constant body weight gain ([2]; modeled, 22.076 kg constant weight gain): 1.396
- time on feed required for weight gain identical to untreated controls ([2]; modeled, 22.076 kg constant weight gain, controls 42 days): 39.921 days

SMILES: CC[C@H](C)[C@H](N)C1=N[C@H](C(=O)N[C@@H](CC(C)C)C(=O)N[C@H](CCC(=O)O)C(=O)N[C@H](C(=O)N[C@H]2CCCCNC(=O)[C@H](CC(N)=O)NC(=O)[C@@H](CC(=O)O)NC(=O)[C@H](Cc3cnc[nH]3)NC(=O)[C@@H](Cc3ccccc3)NC(=O)[C@H]([C@@H](C)CC)NC(=O)[C@@H](CCCN)NC2=O)[C@@H](C)CC)CS1 [bacitracin, reference compound] (HELM PEPTIDE1{[CC[C@H](C)[C@H](N)C1=N[C@H](C(=O)[*:2])CS1].L.[dE].I.K.[NCCC[C@@H](N[*:1])C(=O)[*:2]].I.[dF].H.[dD].N}$PEPTIDE1,PEPTIDE1,5:R3-11:R2$$$V2.0)
- feed conversion rate at constant body weight gain [1, 3]: 1.827
